According to patent EP3744729B1, “PEPTIDES, COMPOSITIONS COMPRISING THEM AND COSMETIC AND DERMOPHARMACEUTICAL USES” (SEDERMA, priority 2009, dated 2023):
Where a SMILES comes first, the peptide text is derived from it. [ ]: non-standard residue; d: D form. The star is where a group is joined. Met(O2) = CS(=O)(=O)CC[C@H](N)C(=O)O; Palmitoyl = CCCCCCCCCCCCCCCC(=O)*; Ava = NCCCCC(=O)O

Legend:
[1] = test system: dermal NHF; experiment: Immunostaining method on dermal NHF: collagen I (Table 7, Test 2); type: cell-based, human; conditions: % difference compared to the control
Text: Table 7 showing % differences in collagen I in the dermis compared to the control for dioxygenated peptide compounds according to the immunostaining method or to ELISA test on dermal NHF

[2] = test system: normal human dermal fibroblasts (NHF); experiment: ELISA test on normal human dermal fibroblasts (NHF): macromolecules in culture supernatant; type: cell-based; conditions: % difference compared to the control; for Collagen I in the dermis Test 1: Table 7; for Collagen I in the dermis: 3 days contact
Description: > ELISA test on normal human dermal fibroblasts (NHF)
This test examines the dermal molecules.
Normal human dermal fibroblasts are cultured in multi-well plates. The cells either are or are not placed in contact with the test substances for 3 days. The culture supernatants are removed and the quantity of macromolecules present (collagen I, fibronectin, collagen IV and hyaluronic acid) is assayed by ELISA.

[3] = test system: Human Keratinocytes (HK); experiment: ELISA test on Human Keratinocytes (HK): macromolecules in culture supernatant; type: cell-based; conditions: epidermal HK, % difference compared to the control
Description: > ELISA test on Human Keratinocytes (HK)
This test examines epidermal molecules.
Human keratinocytes are cultured in multi-well plates. The cells either are or are not placed in contact with the test substances for 3 days. The culture supernatants are removed and the quantity of macromolecules present (fibronectin, laminins and hyaluronic acid) is assayed by ELISA.

[4] = test system: normal human dermal fibroblasts (NHF); experiment: Immunofluorescence (IMF) on normal human dermal fibroblasts (NHF): collagen III; type: cell-based; conditions: 5 ppm peptide
Description: > Immunofluorescence (IMF) on normal human dermal fibroblasts (NHF)
This test examines dermal molecules.
Norman human fibroblasts are cultured in plates. The cells either are or are not placed in contact with the test substances for […]. The cell layers are then labeled with antibodies specifically recognizing collagen III. Photographs were used to reveal and quantify the synthesis of collagen III.

[5] = Table 5, ELISA, 5 ppm peptide, no plant

CCCCCCCCCCCCCCCC(=O)NCCCCC(=O)N[C@@H](CCS(C)(=O)=O)C(N)=O [Pal-Ava-MO2-NH2]
Collagen I in the dermis Test 2 ([1]; 2 ppm): +495% | Collagen I in the dermis Test 2 ([1]; 4 ppm): +667% | Collagen I in the dermis Test 2 ([1]; 6 ppm): +557%

CCCCCCCCCCCCCCCC(=O)N[C@@H](CCCCN)C(=O)NCCCCC(=O)N[C@@H](CCCCN)C(=O)O [Pal-K-Ava-K-OH, reference compound]
Collagen I in the dermis Test 1 ([2]; 4 ppm): +116% | Collagen I in the dermis Test 1 ([2]; 6 ppm): +175%

CCCCCCCCCCCCCCCC(=O)N[C@@H](CCCCN)C(=O)NCCCCC(=O)N[C@@H](CCS(C)(=O)=O)C(=O)N[C@@H](CCCCN)C(=O)O [Pal-K-Ava-MO2-K-OH] (Palmitoyl-K[Ava][Met(O2)]K-OH)
Collagen I in the dermis Test 1 ([2]; 2 ppm): +63% | Collagen I in the dermis Test 1 ([2]; 4 ppm): +167%

CCCCCCCCCCCCCCCC(=O)N[C@@H](CCCCN)C(=O)N[C@@H](Cc1ccccc1)C(=O)N[C@@H](CCS(C)(=O)=O)C(=O)N[C@@H](CCCCN)C(=O)O [Pal-K-F-MO2-K-OH] (Palmitoyl-KF[Met(O2)]K-OH)
Collagen I in the dermis Test 1 ([2]; 4 ppm): +80% | Collagen I in the dermis Test 1 ([2]; 6 ppm): +81%

CCCCCCCCCCCCCCCC(=O)N[C@@H](CCCCN)C(=O)N[C@@H](CCS(C)(=O)=O)C(=O)NCCCCC(=O)N[C@@H](CCCCN)C(=O)O [Pal-K-MO2-Ava-K-OH] (Palmitoyl-K[Met(O2)][Ava]K-OH)
Collagen I in the dermis Test 1 ([2]; 2 ppm): +75%

CCCCCCCCCCCCCCCC(=O)N[C@@H](CCCCN)C(=O)N[C@@H](CCS(C)(=O)=O)C(=O)N[C@@H](Cc1ccccc1)C(=O)N[C@@H](CCCCN)C(=O)O [Pal-K-MO2-F-K-OH] (Palmitoyl-K[Met(O2)]FK-OH)
Collagen I in the dermis Test 1 ([2]; 4 ppm): +91%

CCCCCCCCCCCCCCCC(=O)N[C@@H](CCCCN)C(=O)N[C@@H](CCS(C)(=O)=O)C(=O)N[C@H](C(=O)N[C@@H](CCCCN)C(=O)O)[C@@H](C)O [Pal-K-MO2-T-K-OH] (Palmitoyl-K[Met(O2)]TK-OH)
Collagen I in the dermis Test 1 ([2]; 4 ppm): +45% | Collagen I in the dermis Test 1 ([2]; 6 ppm): +194% | Collagen I in the dermis Test 2 ([1]; 4 ppm): +192% | Collagen I in the dermis Test 2 ([1]; 6 ppm): +217%

CCCCCCCCCCCCCCCC(=O)N[C@@H](CCCCN)C(=O)N[C@H](C(=O)N[C@@H](Cc1ccccc1)C(=O)N[C@@H](CCCCN)C(=O)O)[C@@H](C)O [Pal-K-T-F-K-OH, reference compound] (Palmitoyl-KTFK-OH)
Collagen I in the dermis Test 1 ([2]; 4 ppm): +82% | Collagen I in the dermis Test 1 ([2]; 6 ppm): +103%

CCCCCCCCCCCCCCCC(=O)N[C@@H](CCCCN)C(=O)N[C@H](C(=O)N[C@@H](Cc1ccccc1)C(=O)N[C@@H](CCS(C)(=O)=O)C(N)=O)[C@@H](C)O [Pal-K-T-F-MO2-NH2] (Palmitoyl-KTF[Met(O2)]-NH2)
Collagen I in the dermis Test 1 ([2]; 4 ppm): +106% | Collagen I in the dermis Test 1 ([2]; 6 ppm): +121% | Collagen I in the dermis Test 2 ([1]; 2 ppm): +267% | Collagen I in the dermis Test 2 ([1]; 4 ppm): +420% | Collagen I in the dermis Test 2 ([1]; 6 ppm): +400%

CCCCCCCCCCCCCCCC(=O)N[C@@H](CCCCN)C(=O)N[C@H](C(=O)N[C@@H](CCS(C)(=O)=O)C(=O)N[C@@H](CCCCN)C(=O)O)[C@@H](C)O [Pal-K-T-MO2-K-OH] (Palmitoyl-KT[Met(O2)]K-OH)
Collagen I in the dermis Test 1 ([2]; 4 ppm): +75% | Collagen I in the dermis Test 1 ([2]; 6 ppm): +161% | Collagen I in the dermis Test 2 ([1]; 2 ppm): +273% | Collagen I in the dermis Test 2 ([1]; 4 ppm): +341% | Collagen I in the dermis Test 2 ([1]; 6 ppm): +262%

CCCCCCCCCCCCCCCC(=O)N[C@@H](CCCCN)C(=O)N[C@@H](C)C(=O)N[C@@H](CCCCN)C(=O)O [Pal-KAK-OH, reference compound] (Palmitoyl-Lys-Ala-Lys-OH)
Coll. I ([2]; 4 ppm peptide): +42% | Coll. IV ([2]; 4 ppm peptide): -6% | Fibronectin ([2]; dermal NHF, 4 ppm peptide): +33%

CCCCCCCCCCCCCCCC(=O)N[C@@H](CCCCN)C(=O)N[C@@H](CS)C(=O)N[C@@H](CCCCN)C(=O)O [Pal-KCK-OH] (Palmitoyl-Lys-Cys-Lys-OH)
Coll. I ([2]; 4 ppm peptide): +145% | Coll. IV ([2]; 4 ppm peptide): -1% | Collagen I in the dermis ([2]; 4 ppm peptide): +145% | Coll. I ([2]; 6 ppm peptide): +133% | Coll. IV ([2]; 6 ppm peptide): +23% | Collagen I in the dermis ([2]; 6 ppm peptide): +133% | Fibronectin ([2]; dermal NHF, 4 ppm peptide): +57% | Fibronectin ([2]; dermal NHF, 6 ppm peptide): +70%

CCCCCCCCCCCCCCCC(=O)N[C@@H](CCCCN)C(=O)N[C@@H](CCSC)C(=O)N[C@@H](CCCCN)C(=O)O [Pal-KMK-OH] (Palmitoyl-Lys-Met-Lys-OH)
Collagen I in the dermis ([2]; 4 ppm peptide): +21% | Collagen I in the dermis ([2]; 8 ppm peptide): +64% | Collagen I in the dermis Test 1 ([2]; 4 ppm): +21% | Collagen I in the dermis Test 1 ([2]; 6 ppm): +63%

CCCCCCCCCCCCCCCC(=O)N[C@@H](CCCCN)C(=O)N[C@@H](CCS(C)(=O)=O)C(=O)N[C@@H](CCCCN)C(=O)O [Pal-KMO2K-OH] (Palmitoyl-Lys-[Met(O2)]-Lys-OH)
Coll. I ([2]; 4 ppm peptide): +188% | Coll. IV ([2]; 4 ppm peptide): +27% | Collagen I in the dermis ([2]; 4 ppm peptide): +188% | Coll. I ([2]; 6 ppm peptide): +187% | Coll. IV ([2]; 6 ppm peptide): +97% | Collagen I in the dermis ([2]; 6 ppm peptide): +187% | Coll. I [2, 5]: +111% | Coll. IV [2, 5]: +42% | Fibronectin [2, 5]: +59% | Hyaluronic acid [2, 5]: ≈0% | Collagen I in the dermis Test 1 ([2]; 4 ppm): +188% | Collagen I in the dermis Test 1 ([2]; 6 ppm): +187% | Fibronectin ([2]; dermal NHF, 4 ppm peptide): +42% | Hyaluronic acid ([2]; dermal NHF, 4 ppm peptide): ≈0% | Fibronectin ([2]; dermal NHF, 6 ppm peptide): +109% | Hyaluronic acid ([2]; dermal NHF, 6 ppm peptide): +55% | Hyaluronic acid ([3]; Table 6, 2 ppm peptide, no plant): +44% | Hyaluronic acid ([3]; Table 6, 4 ppm peptide, no plant): +139% | Hyaluronic acid ([3]; Table 6, 5 ppm peptide, no plant): +172% | Hyaluronic acid ([3]; Table 6, 6 ppm peptide, no plant): +290% | Fibronectin ([3]; 4 ppm peptide): +35% | Hyaluronic acid ([3]; 4 ppm peptide): +139% | Laminins ([3]; 4 ppm peptide): +30% | Fibronectin ([3]; 5 ppm peptide): +65% | Hyaluronic acid ([3]; 5 ppm peptide): +172% | Laminins ([3]; 5 ppm peptide): +66% | Fibronectin ([3]; 6 ppm peptide): +159% | Hyaluronic acid ([3]; 6 ppm peptide): +290% | Laminins ([3]; 6 ppm peptide): +172% | Coll. III ([4]; % difference compared to the control, 35 days contact): +104% | Coll. III ([4]; Table 5, % difference compared to the control, no plant): +104% | Collagen I in the dermis Test 2 ([1]; 2 ppm): +329% | Collagen I in the dermis Test 2 ([1]; 4 ppm): +423% | Collagen I in the dermis Test 2 ([1]; 5 ppm): +486%

CCCCCCCCCCCCCCCC(=O)N[C@@H](CCCCN)C(=O)N[C@@H](CC(N)=O)C(=O)N[C@@H](CCCCN)C(=O)O [Pal-KNK-OH] (Palmitoyl-Lys-Asn-Lys-OH)
Collagen I in the dermis ([2]; 5 ppm peptide): +55%

CCCCCCCCCCCCCCCC(=O)N[C@@H](CCCCN)C(=O)N[C@@H](CCC(N)=O)C(=O)N[C@@H](CCCCN)C(=O)O [Pal-KQK-OH]
Coll. I ([2]; 5 ppm peptide): +82% | Fibronectin ([2]; dermal NHF, 5 ppm peptide): +35%

CCCCCCCCCCCCCCCC(=O)N[C@@H](CCCCN)C(=O)N[C@@H](CO)C(=O)N[C@@H](CCCCN)C(=O)O [Pal-KSK-OH, reference compound] (Palmitoyl-Lys-Ser-Lys-OH)
Coll. I ([2]; 4 ppm peptide): +46% | Coll. IV ([2]; 4 ppm peptide): +1% | Fibronectin ([2]; dermal NHF, 4 ppm peptide): +26%

CCCCCCCCCCCCCCCC(=O)N[C@@H](CCS(C)(=O)=O)C(=O)NCCCCC(N)=O [Pal-MO2-Ava-NH2]
Collagen I in the dermis Test 2 ([1]; 2 ppm): +375% | Collagen I in the dermis Test 2 ([1]; 4 ppm): +582% | Collagen I in the dermis Test 2 ([1]; 6 ppm): +461%

CCCCCCCCCCCCCCCC(=O)N[C@@H](CCS(C)(=O)=O)C(=O)N[C@@H](CCCCN)C(=O)O [Pal-MO2-K-OH] (Palmitoyl-[Met(O2)]-Lys-OH)
Collagen I in the dermis Test 2 ([1]; 2 ppm): +270% | Collagen I in the dermis Test 2 ([1]; 4 ppm): +457% | Collagen I in the dermis Test 2 ([1]; 6 ppm): +226%

CCCCCCCCCCCCCCCC(=O)N[C@@H](CCS(C)(=O)=O)C(=O)N[C@H](C(=O)N[C@@H](Cc1ccccc1)C(=O)N[C@@H](CCCCN)C(=O)O)[C@@H](C)O [Pal-MO2-T-F-K-OH] (Palmitoyl-[Met(O2)]TFK-OH)
Collagen I in the dermis Test 1 ([2]; 4 ppm): +111% | Collagen I in the dermis Test 1 ([2]; 6 ppm): +148% | Collagen I in the dermis Test 2 ([1]; 2 ppm): +218% | Collagen I in the dermis Test 2 ([1]; 4 ppm): +456% | Collagen I in the dermis Test 2 ([1]; 6 ppm): +520%
